Target: Xanthine dehydrogenase/oxidase (Homo sapiens, UniProt P47989)
Assay: xanthine oxidase activity: Xanthine oxidase inhibition was determined using a standard fluorescence-based assay for xanthine oxidase activity (McHale A, Grimes H, Coughlan M P: Int J Biochem. 10:317-9, 1979) with minor variations. […] Experiments on test compounds were performed in triplicate in multi-well plates using 10 concentrations of each compound that ranged over a 3-fold dilution.

Chain of Xanthine dehydrogenase/oxidase (P47989 whole entry): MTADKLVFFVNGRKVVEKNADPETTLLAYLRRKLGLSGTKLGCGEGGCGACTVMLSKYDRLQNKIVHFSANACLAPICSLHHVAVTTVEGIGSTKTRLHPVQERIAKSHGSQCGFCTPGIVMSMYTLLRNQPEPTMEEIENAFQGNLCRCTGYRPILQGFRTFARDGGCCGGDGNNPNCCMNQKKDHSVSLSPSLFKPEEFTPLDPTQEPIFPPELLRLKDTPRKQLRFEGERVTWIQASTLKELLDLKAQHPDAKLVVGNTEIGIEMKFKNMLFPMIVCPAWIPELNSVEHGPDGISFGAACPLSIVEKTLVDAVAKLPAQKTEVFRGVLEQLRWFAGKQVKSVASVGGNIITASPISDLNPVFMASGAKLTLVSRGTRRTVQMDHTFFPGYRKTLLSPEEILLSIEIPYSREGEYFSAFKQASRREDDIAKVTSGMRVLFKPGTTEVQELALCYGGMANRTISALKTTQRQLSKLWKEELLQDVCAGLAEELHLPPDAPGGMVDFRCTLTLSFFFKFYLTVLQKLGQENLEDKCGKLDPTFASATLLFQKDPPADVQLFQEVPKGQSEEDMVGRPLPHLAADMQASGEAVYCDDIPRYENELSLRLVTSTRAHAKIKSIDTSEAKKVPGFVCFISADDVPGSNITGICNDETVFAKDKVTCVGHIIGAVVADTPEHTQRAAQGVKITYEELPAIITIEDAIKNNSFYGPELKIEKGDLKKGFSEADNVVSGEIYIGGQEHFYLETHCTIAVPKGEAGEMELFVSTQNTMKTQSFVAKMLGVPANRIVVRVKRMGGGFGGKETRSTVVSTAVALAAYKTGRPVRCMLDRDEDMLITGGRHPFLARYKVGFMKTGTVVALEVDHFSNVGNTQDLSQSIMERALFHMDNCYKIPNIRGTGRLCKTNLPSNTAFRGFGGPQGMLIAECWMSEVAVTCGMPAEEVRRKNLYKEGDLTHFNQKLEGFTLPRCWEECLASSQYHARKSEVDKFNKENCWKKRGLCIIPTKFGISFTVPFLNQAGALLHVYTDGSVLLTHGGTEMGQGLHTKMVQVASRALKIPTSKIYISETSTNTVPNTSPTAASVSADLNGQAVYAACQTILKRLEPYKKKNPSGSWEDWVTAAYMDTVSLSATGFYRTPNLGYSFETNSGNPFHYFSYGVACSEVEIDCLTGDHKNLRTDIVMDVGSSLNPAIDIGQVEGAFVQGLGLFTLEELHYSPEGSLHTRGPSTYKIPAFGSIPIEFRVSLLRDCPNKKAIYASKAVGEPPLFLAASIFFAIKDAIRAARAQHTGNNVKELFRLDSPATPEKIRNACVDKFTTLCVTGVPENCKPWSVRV

O=C(O)CSc1nnc(Br)n1-c1ccc(C2CC2)c2ccccc12
IC50: > 300 µM
